In patent publication US7667031B2, “Nucleic acid base pair” (Japan Science and Technology Agency, priority 1999, dated 2010):
“And” between values parts separate entries of the source, which are not always exact repeats. Equal values may be shown once.

How the values were obtained:
[1] = target: T1, T7 RNA polymerase (Escherichia phage T7, UniProt P00573); assay: Transcription by T7 RNA polymerase, gel electrophoresis of generated RNA; format: biochemical; conditions: for incorporation into the complementary strand of A in transcription (FIG. 10): template 1 (N=A); for incorporation in transcription opposite G (FIG. 10): template 2 (N=G); for incorporation to X in transcription (FIG. 10): template 3 (N=X)
Method: Similarly, a transcription reaction by RNA polymerase using DNA containing X as template was examined. Using template 1-3, promoter region on this strand was duplicated, and the transcription reaction was examined using T7 RNA polymerase by adding [α-^32P] ATP.
Template DNA 1 μM, in which promoter region has duplicated strands, and T7 RNA polymerase 2.5 units were added to a solution containing 2 mM rNTP, [α-^32P] […] The product was analyzed.

[2] = target: T1, T7 RNA polymerase; assay: Transcription by T7 RNA polymerase in presence of rNTP, RNase T2 digestion, 2-dimension TLC (templates 1 and 3); format: biochemical; conditions: for Template 1 (N = A) Measured Value / Template 3 (N = X) Measured Value: rATP, rGTP, rCTP, UTP 2 mM, rYTP 1 mM, nucleotide composition by 2-dimension TLC
Method: Transcription reaction in the presence of rNTP was conducted. […] ATP under the condition of rATP 2 mM, rGTP 2 mM, rCTP 2 mM, UTP 2 mM, and rYTP 1 mM, then generated full length of RNA was digested completely by RNase T2, nucleotide labeled at 3′-terminal was analyzed by 2-dimension TLC. Outline of this experiment is shown as follows.
Reaction was performed as same as in example 8. The generated RNA was isolated by gel electrophoresis. RNA was digested by 0.75 units RNase T2. Each nucleotide was separated using 2-dimension TLC and each ratio was calculated.

[3] = target: T2, Klenow fragment (Escherichia coli, UniProt P00582); assay: Primer extension reaction by Klenow fragment; format: biochemical, E. coli; parameters: Klenow fragment, which is deleted 5′-exonuclease from DNA polymerase I; purchased TAKARA; conditions: 17° C.; for incorporation to the complementary strand X (primer extension, FIG. 6): template 3 1 μM
Description: In order to examine formation of selective novel nucleic acid base pair by utilizing steric hindrance in the base pair X-Y, primer extension method of DNA and transcriptional reaction synthesizing RNA from DNA were applied. The primer extension method includes annealing template DNA oligomer with a primer oligomer, and adding DNA polymerase and 2′-deoxynucleotide-5′-triphosphate (dNTP) to extend complementary sequence of the template at 3′-terminal of the primer. Klenow fragment, which is deleted 5′-exonuclease from DNA polymerase I, one of DNA polymerase originated from E. coli, and T7 RNA polymerase, RNA polymerase originated from T7 phage, were herein used. Both enzymes are commonly used at present.
5′-terminal of the primer was labeled with ^32P using T4 polynucleotide kinase and […]. Primer labeled with ^32P (0.5 μM) and template 1 and 3 (1 μM) and various dNTP (150 μM), wherein N means base, were used for primer extension by Klenow fragment (0.2 unit/μl) at 17° C. for 30 minutes.
The thus obtained product was electrophoresed using 20% polyacrylamide 7M urea gel and analyzed by using imaging plate (Phosphoroimager analysis). In FIG. 6, left five, i.e. AG, AGC, AGT, AGY and AGCT, indicates cases using template 1, and right five indicates cases using template 3.
In order to search effect of incorporation of Y, C and T into the complementary strand of X, when two X are presented on the template, ^32P labeled primer 3 at 5′-terminal and template 4, 5, 6, 7, 8 and 9 were used for primer extension method.
5′-^32P labeled primer, template and 10× Klenow fragment buffer (TAKARA) 1 μl were added to the 0.5 ml tube, adjusted total volume to 7 μl, and annealed at 95° C. for 3 minutes, at 40° C. for 3 minutes and at 4° C. for 7 minutes. dNTP 1 μl, Klenow fragment (1 unit/ml, For Sequencing, TAKARA) 2 μl were added, adjusted to total volume to 10 μl and incubated for the fixed time at 17° C. The reaction was terminated by adding 10 M urea BPB dye 5 μl, heated at 75° C. for 5 minutes, and electrophoresed with 20% polyacrylamide gel with 7M urea gel electrophoresis. The result was analyzed using imaging plates (Phosphoroimager analysis). Single nucleotide insertion reaction is shown in FIG. 7 and primer extension reaction is shown in FIG. 6 and FIG. 9, respectively.

[4] = target: T2, Klenow fragment; assay: Single nucleotide insertion reaction by Klenow fragment; format: biochemical, E. coli; parameters: Klenow fragment, which is deleted 5′-exonuclease from DNA polymerase I; purchased TAKARA; conditions: primer 2 1 μM, only one dNTP 159 μM, 17° C., 30 minutes; for incorporated into complementary strand of X: template 3 2 μM
Method: For quantitative analysis of the incorporation, same experiments were conducted by adding only DNTP (159 μM) using primer 2 (1 μM) labeled with p32 at 5′-terminal and template 1, 2 and 3 (2 μM).
The result was analyzed using imaging plates (Phosphoroimager analysis). Single nucleotide insertion reaction is shown in FIG. 7 and primer extension reaction is shown in FIG. 6 and FIG. 9, respectively.

[5] = target: T3, Klenow fragment (exo+) (Escherichia coli, UniProt P00582); assay: Single nucleotide insertion reaction using Klenow fragment (exo+); format: biochemical, E. coli; conditions: 3 minutes; for rate of incorporation on dx2: template N = X2, 37° C.
T3 construct: Klenow fragment, which is deleted 5′-exonuclease from DNA polymerase I; purchased TAKARA
Method: Using Klenow fragment (exo^+), incorporation of dYTP on dx2 in the template (refer to example 10).
In the template, a position indicated by N was bound with base X or base X2 (for experimental) or base A (for control), and incorporation experiments of various bases were conducted. Results are shown in FIG. 12, in which lanes 1 and 2 indicate control experiments for incorporation of cytosine (C) and thymine (T) on adenine (A).
A solution containing [5′-^32P] labeled primer DNA (20-mer, […]), template DNA (35-mer, […]) and 2× Klenow fragment buffer (TAKARA) were annealed at 95° C. for 3 minutes, 40° C. for 3 minutes and 4° C. for 7 minutes. A solution of equimolar amount of 40 mM dNTP and Klenow fragment (exo^+) (2 unit/ml, For Sequencing, TAKARA) were added thereto and incubated at 37° C. for 3 minutes. […] Products were analyzed by using Phosphoroimager plate.

[6] = target: T2, Klenow fragment; conditions: 17° C.
Method: Primer 2 without labeling and template 2 were annealed, and [α-^32P] TTP and various amounts of dYTP were added thereto to find out ratio of inhibition of incorporation of [α-^32P] TTP into X by dYTP was investigated. […] As a result, when dYTP was added almost equivalent level of [α-^32P] TTP, incorporation of [α-^32P]
Primer, template and 10× Klenow fragment buffer (TAKARA) 1 μl were added to 0.5 ml tube, and total volume was adjusted to 7 μl, and annealed at 95° C. for 3 minutes, at 40° C. for 3 minutes and at 4° C. for 7 minutes. [α-^32P] TTP or [α-^32P] dCTP and dYTP were added to final concentration for each level, and Klenow fragment (1 unit/ml, For Sequencing, TAKARA) 2 μl was added, adjusted to total volume to 10 μl and incubated for the fixed time at 17° C. The reaction was terminated by adding 10 M urea BPB dye 5 μl kept at 75° C. for 5 minutes, and electrophoresed with 20% polyacrylamide gel with 7M urea gel electrophoresis. The result was analyzed using imaging plates (Phosphoroimager analysis).

[7] = primer 1 0.5 μM, dNTP 150 μM, 30 minutes

T3 sequence (P00582 324-928): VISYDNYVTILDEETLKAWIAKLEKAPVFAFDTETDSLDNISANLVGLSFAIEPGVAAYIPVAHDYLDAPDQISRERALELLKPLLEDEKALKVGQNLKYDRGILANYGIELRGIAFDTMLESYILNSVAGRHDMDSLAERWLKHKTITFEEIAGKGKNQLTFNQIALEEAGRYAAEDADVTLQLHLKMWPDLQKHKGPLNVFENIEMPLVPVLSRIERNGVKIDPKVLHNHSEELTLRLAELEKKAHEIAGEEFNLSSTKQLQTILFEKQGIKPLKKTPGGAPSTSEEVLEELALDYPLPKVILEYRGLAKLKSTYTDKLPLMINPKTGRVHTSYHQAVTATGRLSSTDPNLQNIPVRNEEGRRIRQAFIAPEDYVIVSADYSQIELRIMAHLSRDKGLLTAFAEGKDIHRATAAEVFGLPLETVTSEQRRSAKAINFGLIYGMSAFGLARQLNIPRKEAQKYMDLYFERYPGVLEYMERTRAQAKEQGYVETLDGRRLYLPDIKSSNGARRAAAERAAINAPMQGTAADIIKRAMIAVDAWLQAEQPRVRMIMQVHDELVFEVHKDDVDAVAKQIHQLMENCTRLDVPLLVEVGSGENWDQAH
T2 sequence (P00582 324-928): as above
T1 sequence (P00573 whole entry): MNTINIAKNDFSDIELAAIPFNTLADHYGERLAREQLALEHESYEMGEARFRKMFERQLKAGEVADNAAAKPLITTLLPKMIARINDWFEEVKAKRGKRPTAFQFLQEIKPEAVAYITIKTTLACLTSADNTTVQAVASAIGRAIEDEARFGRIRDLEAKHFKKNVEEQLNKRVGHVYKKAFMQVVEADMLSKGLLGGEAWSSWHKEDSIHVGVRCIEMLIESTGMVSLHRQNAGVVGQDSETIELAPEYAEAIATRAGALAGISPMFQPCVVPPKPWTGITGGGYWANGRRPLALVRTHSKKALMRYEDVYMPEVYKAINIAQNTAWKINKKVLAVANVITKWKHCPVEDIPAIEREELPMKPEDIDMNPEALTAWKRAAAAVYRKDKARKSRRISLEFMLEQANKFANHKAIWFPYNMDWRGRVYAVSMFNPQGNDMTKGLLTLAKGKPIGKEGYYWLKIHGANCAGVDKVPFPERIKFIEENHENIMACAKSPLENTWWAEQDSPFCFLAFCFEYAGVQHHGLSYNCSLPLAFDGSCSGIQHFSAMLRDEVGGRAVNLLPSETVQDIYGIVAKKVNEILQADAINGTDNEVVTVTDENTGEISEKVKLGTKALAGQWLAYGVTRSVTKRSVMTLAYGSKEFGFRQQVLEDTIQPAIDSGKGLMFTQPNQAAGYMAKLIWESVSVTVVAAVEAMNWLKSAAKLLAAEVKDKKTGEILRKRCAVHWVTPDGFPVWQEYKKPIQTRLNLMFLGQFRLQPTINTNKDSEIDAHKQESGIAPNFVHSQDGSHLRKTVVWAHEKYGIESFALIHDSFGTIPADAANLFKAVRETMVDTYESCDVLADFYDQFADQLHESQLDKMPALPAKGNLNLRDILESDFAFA

O=c1cccc[nH]1 [Y, pyridine-2-one]
incorporation into the complementary strand of A in transcription (FIG. 10) [1]: incorporated
incorporation in transcription opposite G (FIG. 10) [1]: almost no production
incorporation to X in transcription (FIG. 10) [1]: selective incorporation
incorporation in transcription reaction in the presence of rNTP ([2]; template 1 (N=A)): no incorporation
incorporation in transcription reaction in the presence of rNTP ([2]; template 3 (N=X)): almost selectively incorporated
incorporation into the complementary strand of the second X in the two X ([3]; another base between two X on the template, primer 3, dNTP 150 μM, 60 minutes (FIG. 9)): only Y was incorporated
incorporation into complementary strands (primer extension, FIG. 6) ([3]; primer 1 0.5 μM, template 1 and 3 1 μM, dNTP 150 μM, 30 minutes): incorporated into complementary strands of A, G and X
incorporated into complementary strand of A ([4]; template 1 2 μM): 78%
incorporated into complementary strand of G ([4]; template 2 2 μM): 48%
incorporated into complementary strand of X [4]: 42% and 41%

O=c1ccn([C@@H]2O[C@H](CO)[C@@H](OP(=O)(O)O)[C@H]2O)c(=O)[nH]1 [Up]
Template 1 (N = A) Measured Value [2]: 0.98
Template 3 (N = X) Measured Value [2]: 0.08

O=c1[nH]cccc1[C@H]1C[C@H](O)[C@@H](COP(=O)(O)OP(=O)(O)OP(=O)(O)O)O1 [dYTP, 3-(2′-deoxy-5′-O-triphosphoryl-β-D-ribofuranosyl) pyridine-2-one]
rate of incorporation on dx2 [5]: 40%
rate of incorporation on dx ([5]; template N = X, 37° C.): 21%
inhibition of incorporation of [α-32P] TTP into X by dYTP ([6]; dYTP added at almost equivalent level of [α-32P] TTP, 30 minutes): 50%
inhibition of incorporation of [α-32P] TTP into the complementary strand of A ([6]; template 1, dYTP 0-1000 μM): did not inhibit
inhibition of incorporation of [α-32P] CTP into the complementary strand of G ([6]; template 2, dYTP 0-1000 μM): did not inhibit

Nc1ncnc2c1ncn2[C@@H]1O[C@H](CO)[C@@H](OP(=O)(O)O)[C@H]1O [Ap]
Template 1 (N = A) Measured Value [2]: 0.92
Template 3 (N = X) Measured Value [2]: 1.05

Cc1c[nH]c(=O)[nH]c1=O [T, thymine]
incorporation to the complementary strand X (primer extension, FIG. 6) [3, 7]: incorporated
incorporated into complementary strand of X [4]: 13%

Nc1ccn([C@@H]2O[C@H](CO)[C@@H](OP(=O)(O)O)[C@H]2O)c(=O)n1 [Cp]
Template 1 (N = A) Measured Value [2]: 0.78
Template 3 (N = X) Measured Value [2]: 0.94

Nc1ccn([C@H]2C[C@H](O)[C@@H](COP(=O)(O)OP(=O)(O)OP(=O)(O)O)O2)c(=O)n1 [dCTP]
rate of incorporation on dx2 [5]: 22%

Nc1nc2c(ncn2[C@@H]2O[C@H](CO)[C@@H](OP(=O)(O)O)[C@H]2O)c(=O)[nH]1 [Gp]
Template 1 (N = A) Measured Value [2]: 4
Template 3 (N = X) Measured Value [2]: 4

O=c1cc[nH]c(=O)[nH]1 [U]
incorporation into the complementary strand of A in transcription (FIG. 10) [1]: incorporated
incorporation to X in transcription (FIG. 10) [1]: Trace amount
incorporation in transcription reaction in the presence of rNTP ([2]; template 3 (N=X)): trace amount

Nc1cc[nH]c(=O)n1 [C, cytosine]
incorporation in transcription opposite G (FIG. 10) [1]: only C was incorporated
incorporation to the complementary strand X (primer extension, FIG. 6) [3, 7]: incorporated
incorporated into complementary strand of X [4]: 9.5%
